According to patent US6667328B2, “Therapeutic agents for diabetes” (Fujimoto Brothers Co., Ltd., priority 2000, dated 2003):

Tests used:
[1] = test system: Genetically diabetic db/db mice (C57BL/ksJ Jcl-dbm db/db mice); test: Blood sugar lowering actions in genetically diabetic mice; type: in vivo; conditions: serum glucose vs control group
Method: (§1) Genetically diabetic db/db mice (C57BL/ksJ Jcl-dbm db/db mice) older than 8 weeks were grouped depend on their blood sugar levels of the prior measurements in order to divide groups with almost equal mean value of the sugar level. The respective groups of db/db mice were designates as the following groups: the group given the compound of the present invention, the group of troglitazone, and the group given no administrating group. For the compounds of the present invention, two doses: 75 mg/kg and 150 mg/kg, and for troglitazone, a dose of 150 mg/kg were individually given to the mice as a forced oral administration once daily for 14 days successively. These agents were suspended in 3.0% Arabic gum solution for administration. To the control group, only the same volume of 3.0% Arabic gum solution was administered. On the next day of the final administration, each mouse was […] for sampling. The blood samples were subject to serum separation. The glucose level in the serum of each group was measured. Then, a reduction rate in a glucose level (%) compared to the control group was calculated with mean value of each group according to the equation below. […] [formula]

[2] = test system: 3T3-L1 preadipocyte cells; test: Differentiation-inducing actions on adipose cells (oil red-O staining, absorbance at 490 nm); type: cell-based; conditions: 3T3-L1, oil red-O extract absorbance at 490 nm, ratio to control group (1.0)
Method: The cloned cell line 3T3-L1 of the preadipocyte cells at the 9-20th generation were used. The cell suspension at a concentration of 2×10^4 cells/ml was added 500 μl/well in a 24 well microplate. Then, the microplates were cultured at 37° C. in the atmosphere of 5% CO2 for 4 days with D-MEM containing 5% inactivated fetal calf serum (hereinafter abbreviated as “FCS D-MEM”). Next, the following procedures were conducted.
(1) To test compound of this invention, 500 μl/well of the following solutions was added to each well:
1) test compound-containing medium (T-MEM) in which the test compound in a stock solution (30 mM in DMSO) was diluted with FCS D-MEM containing 0.1 μM dexamethazone and 100 ng/ml insulin (hereinafter abbreviated as DEX-Ins-FCS D-MEM);
2) FCS-D-MEM; 3) DEX-Ins-FCS D-MEM; 4) 0.1% DMSO-containing DEX-Ins-FCS D-MEM for me control wells.
(2) After above additions were done, the culture plates were incubated at 37° C. in 5% CO2 for 3 days. Then, the same operations as in the procedure (1) were repeated for exchange of the culture medium. The culture plates were incubated at 37° C. in 5% CO2 for further 3 days.
(3) After incubation, the culture medium was removed from the culture plates. Then, the FCS D-MEM was added to the FCS D-MEM-wells, and next the medium prepared for containing 100 ng/ml of insulin with the FCS D-MEM (hereinafter abbreviated as “Ins-FCS D-MEM”) was added at 500 μl/well to the T-MEM wells and DEX-Ins-FCS D-MEM wells. All culture plates were incubated for 4 days.
(4) After incubation, the culture medium was removed. For cell fixation, 500 μl/well of 10% formalin in neutral buffer was added, and left at the room temperature for approximately 20 minutes or longer. Then the formalin solution was removed, and 60% 2-propanol solution was added at 500 μl/well, then quickly removed, and the oil red-O staining solution was added at 250 μl/well. The culture plates were sealed with plate seals, and left at room temperature for 30 minutes or longer. After incubation, the staining solution was removed, and the 60% 2-propanol solution was added at 500 μl/well, and quickly removed. The cells were rinsed with water a few times, and then water drops were flipped away. A cell-lysis buffer was added at 500 μl/well, and the culture plates were sealed with plate seals, and left at 37° C. for 1 hour to extract the pigments. Next, 300 μl/well of the extract solution was transferred at a 96 well micro-plates, and then the absorbance of each extract was measured at wavelength of 490 nm.
The absorbance ratios of the respective test compounds-groups to the control group, the mean absorbance of which was designated as 1.0, are shown in Table 8. Based on the judgement that the absorbance higher than that of the control group indicates a greater differentiation-inducing activity of the test compound, the compounds of the present invention were determined to have the activity to induce differentiation of preadipocytes to adipocytes, resulting in elevating insulin sensitivity of organs. Thereby, this activity would confer the efficacy in the therapy of diabetes.

[3] = test system: fructose-induced hyperlipidemic rats; test: Hypotriglyceridemic activity in fructose-induced hyperlipidemic rats; type: in vivo, Sprague Dawley rats; conditions: fructose-loaded rats, 30 mg/kg p.o. once daily for 7 days; for inhibition in vivo at 30 mg/kg: Rattus norvegicus, po, 168 h, read-out: Reduction in Serum Triglyceride (%)
Method: The compounds were tested for a hypotriglyceridemic activity in fructose-induced hyperlipidemic rats in accordance with the method described in Nippon Yakurigaku Zasshi, 92 (3), 175-180 (1988). Sprague Dawley rats were grouped by the ranking method of body weight. Then, instead of drinking water, rats were given 75% fructose aqueous ad libitum for one week, thereby, resulting in the state of hypertriglyceridemia. The compounds of the present invention, suspended in 3% Arabic gum aqueous solution, and a dose of 30 mg/kg was orally administrated once daily for 7 days during the fructose-loading period. The control group of rats were given 3% Arabic gum aqueous solution only. Two hours later of the final administration, the rats were bled from the abdominal aorta to measure serum triglycerides and total cholesterol. The reduction rate (%) of each measurement compared to the control groups was calculated according to the equation indicated in EXAMPLE 4.

[4] = test system: db/db mice; test: Antihyperlipidemic activities in genetically diabetic mice; type: in vivo; conditions: 150 mg/kg p.o. once daily for 14 days, serum
Method: as §1
In the same way as described in EXAMPLE 4, db/db mice were grouped in the manner by which the respective groups had almost equivalent mean blood sugar levels. The compounds 1, 3, 13, 21 and 22 of the present invention, suspended in 3.0% Arabic gum solution, were orally administrated, with a dose of 150 mg/kg, once daily for successive 14 days. The control group of mice were given the vehicle solution only. On the next day of the final administration, each mouse was bled for sampling. The blood was subjected for serum separation, and then subjected to measurements of β-lipoproteins, free fatty acids, and triglycerides. The reduction rate (%) of each measurement compared to the control group was calculated by the equation indicated in EXAMPLE 4. […] (Table 9).

[5] = test system: high cholesterol-fed hamsters; test: Lipid lowering effects in high cholesterol-fed hamsters; type: in vivo, Syrian hamsters; conditions: Example 9 (Table 12), 15 mg/kg p.o.
Text: According to the method described in Jpn Pharmacol Ther, 23 (suppl 4), s1047-1053 (1995), male Syrian hamstars were fed for 3 weeks with 1% cholesterol 10% coconut oil (W/W) supplemented diet, and thereby, became to be hypercholesterolemia models. Prior to administration of the compounds, under ether anesthesia, the hamsters were bled from the orbital vein for measurement of serum total cholesterol. They were grouped in the manner by which the respective groups had almost equal serum total cholesterol levels. The normal group of hamsters were fed ordinary diet. Thereafter, the compound 1 and bezafibrate were orally administered once daily at doses of 15 (for only compound 1), 30, 60 and 120 mg/kg for 7 days. Even during the treatment period, cholesterol loading was continued. Four hours later of the final administration, the hamsters were bled by cardiac puncture. The total cholesterol and triglycerides in the serum obtained were measured by the enzymatic method. The results are shown in Table 11 (the negative values mean elevation rates.)
The actions of the compounds of the present invention at a dose of 15 mg/kg were measured in the same method as described in EXAMPLE 8.

| SMILES | Absorbance Ratio [2] | inhibition in vivo at 30 mg/kg [3] | also measured |
| --- | --- | --- | --- |
| N#CN=C1NC(=O)/C(=C\c2ccc(C=Cc3ccccc3)cc2)S1.[Na] [Compound 63, 2-(N-Cyanoimino)-5-[(E)-4-stylylbenzylidene]thiazolidin-4-one Sodium Salt] | – | – | Reduction in Blood Glucose (%) ([1]; 75 mg/kg oral once daily for 14 days): 32% |
| N#CN=C1NC(=O)C(=Cc2ccc(OCCCc3ccccc3)cc2)S1 [Compound 5, 2-(N-Cyanoimino)-5-[4-(3-phenylpropoxy)benzylidene]thiazolidin-4-one] | 1.87 | – | – |
| N#CN=C1NC(=O)/C(=C\c2ccc(C=Cc3ccccc3F)cc2)S1 [Compound 8, 2-(N-Cyanoimino)-5-[(E)-4-(2-fluorostyryl)benzylidene]thiazolidin-4-one] | 1.95 | 47% | – |
| N#CN=C1NC(=O)C(=Cc2ccccc2OCCc2ccccc2)S1 [Compound 21, 2-(N-Cyanoimino)-5-(2-phenethyloxybenzylidene)thiazolidin-4-one] | 2.02 | 48% | Reduction Rate (%) Free Fatty Acids [4]: 25%; Reduction Rate (%) Triglycerides [4]: 41%; Reduction Rate (%) β-lipoproteins [4]: 38% |
| N#CN=C1NC(=O)C(=Cc2ccc(Sc3ccccc3)cc2)S1 [Compound 7, 2-(N-Cyanoimino)-5-(4-phenylthiobenzylidene)thiazolidin-4-one] | 1.93 | 60% | – |
| N#CN=C1NC(=O)C(=Cc2ccc(OCc3ccccc3)cc2)S1 [Compound 13] | 2.51 | – | Reduction in Serum Triglyceride (%) [3]: 55%; Reduction Rate (%) Free Fatty Acids [4]: 38%; Reduction Rate (%) Triglycerides [4]: 70%; Reduction Rate (%) β-lipoproteins [4]: 65% |
| N#CN=C1NC(=O)C(=Cc2ccc(-c3cc4cc(Cl)ccc4o3)cc2)S1 [Compound 14, 2-(N-Cyanoimino)-5-[4-(5-chlorobenzofuran-2-yl)benzylidene]thiazolidin-4-one] | – | 36% | – |
| Cc1c(C)c2c(c(C)c1O)CCC(C)(COc1ccc(CC3SC(=O)NC3=O)cc1)O2 (centres unmarked) [troglitazone, reference compound] | – | – | Reduction in Blood Glucose (%) ([1]; 150 mg/kg oral once daily for 14 days): 18% |
| CC(COc1ccc(C=C2SC(=NC#N)NC2=O)cc1)c1ccccc1 (centres unmarked) [Compound 11, 2-(N-Cyanoimino)-5-[4-(2-phenylpropoxy)benzylidene]thiazolidin-4-one] | – | 62% | – |
| Cc1ccc(C)c(Oc2ccc(C=C3SC(=NC#N)NC3=O)cc2)c1 [Compound 9, 2-(N-Cyanoimino)-5-[4-(2,5-dimethylphenoxy)benzylidene]thiazolidin-4-one] | – | 49% | – |
| N#CN=C1NC(=O)C(=Cc2cccc(OCCc3ccccc3)c2)S1 [Compound 12, 2-(N-Cyanoimino)-5-(3-phenethyloxybenzylidene)thiazolidin-4-one] | 1.74 | 59% | – |
| N#CN=C1NC(=O)C(=Cc2ccc(OCc3ccc(Cl)cc3)cc2)S1 [Compound 19, 2-(N-Cyanoimino)-5-[4-(4-chlorobenzyloxy)benzylidene]thiazolidin-4-one] | 1.51 | 38% | – |
| N#CN=C1NC(=O)C(=Cc2ccc(OCc3ccc4c(c3)OCO4)cc2)S1 [Compound 17, 2-(N-Cyanoimino)-5-[4-(1,3-benzodioxole-5-ylmethoxy)benzylidene]thiazolidin-4-one] | – | 37% | – |
| N#CN=C1NC(=O)C(=Cc2cccc(Oc3ccccc3)c2)S1 [Compound 16, 2-(N-Cyanoimino)-5-(3-phenoxybenzylidene)thiazolidin-4-one] | 1.18 | 54% | – |
| CCC(Oc1ccc(C)cc1)c1ccccc1 (centres unmarked) [Compound 32] | – | 47% | – |
| CC(=Cc1ccc(/C=C2/SC(=NC#N)NC2=O)cc1)c1ccccc1 [Compound 4, 2-(N-Cyanoimino)-5-[(E)-4-(β-methylstyryl)benzylidene]thiazolidin-4-one] | 2.62 | 42% | – |
| CC(=Cc1ccccc1)c1ccc(/C=C2/SC(=NC#N)NC2=O)cc1 [Compound 2, 2-(N-Cyanoimino)-5-[(E)-4-(α-methylstyryl)benzylidene]thiazolidin-4-one] | 1.57 | 67% | Reduction Rate (%) Total cholesterol [5]: 27%; Reduction Rate (%) Triglyceride [5]: 57% |
| N#CN=C1NC(=O)C(=Cc2ccc(Oc3ccc(Cl)cc3)cc2)S1 [Compound 6, 2-(N-Cyanoimino)-5-[4-(4-chlorophenoxy)benzylidene]thiazolidine-4-one] | – | 84% | – |
